Test system: Plasmodium berghei
Assay: Luciferase/luciferin-expressing antifolate-resistant parasites were used to infect a culture of HepG2 cells that were pre-incubated with compounds. Infected hepatocytes emit light due to the luciferase reaction. Assay results are presented as the percent inhibition of light emission compared to control. […]
Format: functional
Details: sporozoite; for IC90: read-out: LUCIFERASE INFECTION ASSAY - IC90
[1] = read-out: LUCIFERASE INFECTION ASSAY - IC50

SMILES	IC90 [µM]	IC50 [1] [µM]	also measured
CCOC(=O)c1cc(NC(=O)c2ccc(Cl)c(S(=O)(=O)N(Cc3ccccc3)c3ccccc3OC)c2)cc(C(=O)OCC)c1	> 10		IC50 (FFLUC_HILL_SLOPE 3.02, FFLUC_R_SQUARED 0.375, read-out: LUCIFERASE INFECTION ASSAY - IC50): > 10 µM
COc1ccc(-c2cnc3cnc(-c4ccc5c(c4)OCO5)cn23)cc1	4.64	1.78	
c1ccc2c(-c3cc(Nc4ccc5[nH]ccc5c4)ncn3)cccc2c1	4.49		IC50 (HEPG2TOX_HILL_SLOPE 1.68, HEPG2TOX_R_SQUARED 0.859, PBLUC_HILL_SLOPE 1.6, PBLUC_R_SQUARED 0.806, read-out: LUCIFERASE INFECTION ASSAY - IC50): 1.13 µM
c1ccc(Sc2c(-c3ccccc3)cc3ccccn23)cc1	9.91		IC50 (FFLUC_HILL_SLOPE 15.3, FFLUC_R_SQUARED 0.586, PBLUC_HILL_SLOPE 15.5, PBLUC_R_SQUARED 0.389, read-out: LUCIFERASE INFECTION ASSAY - IC50): 8.6 µM
Cc1ccc(C(C)CCN2CCc3c(c(C(=O)NCc4nccs4)nn3Cc3ccccc3)C2)o1 (stereo not drawn)	> 6.74	> 6.74	
CSc1ccccc1NC(=O)CN1CCN(C(c2ccccc2)c2ccccc2)CC1	6.36		IC50 (HEPG2TOX_HILL_SLOPE 7.79, HEPG2TOX_R_SQUARED 0.752, PBLUC_HILL_SLOPE 3.88, PBLUC_R_SQUARED 0.663, read-out: LUCIFERASE INFECTION ASSAY - IC50): 3.61 µM
Clc1cccc(-c2cc3c(Nc4ccccn4)nccc3[nH]2)c1	6.66	6.48	
O=S(=O)(Oc1ccc2oc3ccccc3c2c1)c1ccccc1F	> 10	> 10	
CN1CCN(c2ccc(CNS(=O)(=O)c3cccs3)cn2)CC1	> 2	> 2	
CC(=O)Nc1nc(C(=O)Nc2ccc3c(c2)OC(F)(F)O3)cs1	> 10		IC50 (PBLUC_HILL_SLOPE 15.0, 3.17, PBLUC_R_SQUARED 0.232, 0.795, read-out: LUCIFERASE INFECTION ASSAY - IC50): 7.96 µM
Cc1cc(C)cc(C(O)c2nc(-c3cccc4ccccc34)c[nH]2)c1 (stereo not drawn)	> 10		IC50 (PBLUC_HILL_SLOPE 13.8, PBLUC_R_SQUARED 0.489, read-out: LUCIFERASE INFECTION ASSAY - IC50): 9.47 µM
CSc1nccc(-c2ccc3c(c2)CCC(C)(C)O3)n1	11		IC50 (PBLUC_HILL_SLOPE 0.747, PBLUC_R_SQUARED 0.886, read-out: LUCIFERASE INFECTION ASSAY - IC50): 0.583 µM
c1ccc(-c2nn(-c3ccccc3)cc2CSc2nncs2)cc1	> 10		IC50 (PBLUC_HILL_SLOPE 1.24, PBLUC_R_SQUARED 0.639, read-out: LUCIFERASE INFECTION ASSAY - IC50): 5.72 µM
CCCCCCC(/C=N/NC(=O)c1ccccc1O)=C\c1ccccc1	> 10	> 10	
CCOc1cc(/C=C2\S/C(=N\C3CCCC3)NC2=O)cc(Br)c1OCC	3.94		IC50 (HEPG2TOX_HILL_SLOPE 17, HEPG2TOX_R_SQUARED 0.811, PBLUC_HILL_SLOPE 15.3, PBLUC_R_SQUARED 0.445, read-out: LUCIFERASE INFECTION ASSAY - IC50): 3.41 µM
COC(=O)c1cc(N/N=C2\C=CC(=O)c3ncccc32)cc(C(=O)OC)c1	3.38		IC50 (FFLUC_HILL_SLOPE 11, FFLUC_R_SQUARED 0.42, HEPG2TOX_HILL_SLOPE 0.866, HEPG2TOX_R_SQUARED 0.908, PBLUC_HILL_SLOPE 2.75, PBLUC_R_SQUARED 0.794, read-out: LUCIFERASE INFECTION ASSAY - IC50): 1.52 µM
CCOc1ccc(CN(CC)C(=O)c2ccc(=O)[nH]c2)cc1OC	> 10	> 10	
N=C(NOC(=O)Nc1ccc(OC(F)(F)F)cc1)c1cc(Cl)c(N)c(Cl)c1	> 7.8	> 7.8	
CCOC(=O)c1c(NC(=O)COC(=O)c2c(C)noc2C)sc(-c2ccccc2)c1C	> 10	> 10	
CC(C)(C)c1ccc(OCCNC(=O)c2cccnc2)cc1	> 11.1	> 11.1	
Cc1ccccc1-c1noc(-c2cc(-c3cccs3)[nH]n2)n1	> 10		IC50 (HEPG2TOX_HILL_SLOPE 8.85, HEPG2TOX_R_SQUARED 0.0358, read-out: LUCIFERASE INFECTION ASSAY - IC50): > 10 µM
Cc1cc(N2CCN(C(=O)c3cc(C4CC4)nn3-c3ccccc3)CC2)nc(C(C)C)n1	> 10		IC50 (HEPG2TOX_HILL_SLOPE 7.58, HEPG2TOX_R_SQUARED 0.717, PBLUC_HILL_SLOPE 1.92, PBLUC_R_SQUARED 0.299, read-out: LUCIFERASE INFECTION ASSAY - IC50): 4.83 µM

SMILES	IC90 [µM]	IC50 [1] [µM]	also measured
O=c1[nH]nc(Sc2ncc([N+](=O)[O-])s2)n1Cc1ccccc1	> 9.84		IC50 (FFLUC_HILL_SLOPE 3.03, FFLUC_R_SQUARED 0.344, HEPG2TOX_HILL_SLOPE 12.4, HEPG2TOX_R_SQUARED 0.571, PBLUC_HILL_SLOPE 13, PBLUC_R_SQUARED 0.0851, read-out: LUCIFERASE INFECTION ASSAY - IC50): 8.7 µM
COCC/N=c1\scc(-c2ccc(OC(F)F)cc2)n1/N=C/c1ccccc1Cl	> 10	> 10	
CC(NC1CCCCCC1)C(=O)c1c[nH]c2ccccc12 (stereo not drawn)	> 10	> 10	
N#CC(C#N)=NNc1cc(F)c(Br)cc1F	4.79		IC50 (PBLUC_HILL_SLOPE 13.7, PBLUC_R_SQUARED 0.287, read-out: LUCIFERASE INFECTION ASSAY - IC50): 4.08 µM
COC(=O)c1c(-c2cccs2)csc1NC(=O)CSc1cc(C)c2ccccc2n1	> 10	> 10	
Cc1cccnc1NC(=O)c1ccc(Cl)c(S(=O)(=O)N(Cc2ccccc2)c2ccccc2)c1	> 10		IC50 (PBLUC_HILL_SLOPE 2.12, PBLUC_R_SQUARED 0.451, read-out: LUCIFERASE INFECTION ASSAY - IC50): 5.79 µM
Cc1ccccc1/N=c1\scc(-c2ccc(Cl)cc2Cl)n1C(C)CCC(C)C (stereo not drawn)	9.57		IC50 (PBLUC_HILL_SLOPE 3.23, PBLUC_R_SQUARED 0.321, read-out: LUCIFERASE INFECTION ASSAY - IC50): 4.85 µM
Cc1csc(NC(=O)c2cc(C3CC3)n[nH]2)n1	> 10		IC50 (FFLUC_HILL_SLOPE 1.65, FFLUC_R_SQUARED 0.902, read-out: LUCIFERASE INFECTION ASSAY - IC50): > 10 µM
Cc1cccc(NC(=O)CSc2nc3ccccc3c3nc(C)nn23)c1	0.789		IC50 (HEPG2TOX_HILL_SLOPE 1.51, HEPG2TOX_R_SQUARED 0.99, PBLUC_HILL_SLOPE 1.83, PBLUC_R_SQUARED 0.897, read-out: LUCIFERASE INFECTION ASSAY - IC50): 0.237 µM
Cc1cc(C)c(C(=O)OCCC(NS(=O)(=O)c2ccc(Cl)cc2)c2ccccc2)c(C)c1 (stereo not drawn)	> 10	> 10	
COc1cc(CSc2nc3ccccc3c(=O)n2C(C)C)ccc1OC(F)F	3.99		IC50 (HEPG2TOX_HILL_SLOPE 1.32, HEPG2TOX_R_SQUARED 0.932, PBLUC_HILL_SLOPE 1.38, PBLUC_R_SQUARED 0.834, read-out: LUCIFERASE INFECTION ASSAY - IC50): 0.81 µM
Cc1ccnc(NC(c2ccccn2)c2ccc3ccc(C)nc3c2O)c1 (stereo not drawn)	> 9.26		IC50 (HEPG2TOX_HILL_SLOPE 1.81, HEPG2TOX_R_SQUARED 0.956, PBLUC_HILL_SLOPE 14.5, PBLUC_R_SQUARED 0.453, read-out: LUCIFERASE INFECTION ASSAY - IC50): 8.04 µM
CC(=C(C#N)C#N)c1ccc2c(c1)OCCO2	> 10	> 10	
CCCCNC(=O)c1c(NC(=O)c2cc(F)ccc2F)nc2ccccn12	3.57		IC50 (HEPG2TOX_HILL_SLOPE 2.83, HEPG2TOX_R_SQUARED 0.745, PBLUC_HILL_SLOPE 13.2, PBLUC_R_SQUARED 0.5, read-out: LUCIFERASE INFECTION ASSAY - IC50): 3.03 µM
O=C1C(=C2NN=NN2c2ccc(-c3ccccc3)cc2)C=Nc2ccccc21	> 9.03		IC50 (PBLUC_HILL_SLOPE 3.52, PBLUC_R_SQUARED 0.301, read-out: LUCIFERASE INFECTION ASSAY - IC50): 6.48 µM
O=C(NCc1ccco1)C1Cc2c(-c3ccccc3)ccnc2O1 (stereo not drawn)	3.73		IC50 (HEPG2TOX_HILL_SLOPE 12.7, HEPG2TOX_R_SQUARED 0.925, PBLUC_HILL_SLOPE 2.58, PBLUC_R_SQUARED 0.503, read-out: LUCIFERASE INFECTION ASSAY - IC50): 1.59 µM
O=C1CCCC2=C1C(c1ccccc1)C=C1c3cc4c(cc3CCN12)OCCCO4 (stereo not drawn)	> 8.26	> 8.26	
Cc1nn(-c2ccccc2)nc1C(=O)NNC(=S)Nc1ccc(Cl)cc1	> 8.53	> 8.53	
CCN(CC)CCNC(=O)c1ccc(NC(=O)c2cccc(S(=O)(=O)N3CCc4ccccc43)c2)cc1	> 10		IC50 (PBLUC_HILL_SLOPE 8.86, PBLUC_R_SQUARED 0.0114, read-out: LUCIFERASE INFECTION ASSAY - IC50): > 10 µM
Cc1nn(-c2ccccc2)c2nc(Cl)c(C3Nc4ccccc4-c4nc5ccccc5n43)cc12 (stereo not drawn)	> 10		IC50 (FFLUC_HILL_SLOPE 11.9, FFLUC_R_SQUARED 0.792, read-out: LUCIFERASE INFECTION ASSAY - IC50): > 10 µM
C=c1ccccc1=C1NN=C(Sc2cnn(-c3ccc(C(F)(F)F)cn3)c(=O)c2Cl)N1CC	5.32		IC50 (HEPG2TOX_HILL_SLOPE 11.7, 13.0, HEPG2TOX_R_SQUARED 0.881, 0.478, PBLUC_HILL_SLOPE 8.47, PBLUC_R_SQUARED 0.136, read-out: LUCIFERASE INFECTION ASSAY - IC50): 4.11 µM
CC(OC(=O)c1c2c(nc3ccccc13)/C(=C/c1cccs1)CCC2)C(=O)Nc1ccccc1C#N (stereo not drawn)	3.58		IC50 (FFLUC_HILL_SLOPE 1.58, FFLUC_R_SQUARED 0.34, HEPG2TOX_HILL_SLOPE 8.31, HEPG2TOX_R_SQUARED 0.803, PBLUC_HILL_SLOPE 17.4, PBLUC_R_SQUARED 0.614, read-out: LUCIFERASE INFECTION ASSAY - IC50): 3.16 µM

Reference: ChEMBL document CHEMBL4483862, “Open-source discovery of chemical leads for next-generation chemoprotective antimalarials” (2018)
